These results are taken from ChEMBL document CHEMBL3804819, “2-(Quinolin-4-yloxy)acetamides Are Active against Drug-Susceptible and Drug-Resistant Mycobacterium tuberculosis Strains” (ACS Med Chem Lett, 2016).

SMILES strings stand for the structures. In brackets after ≈: the same amount, converted by molar mass. Bounds are passed on as bounds.

Holding throughout (assay type): functional
For assay [1], the system named is Mycobacterium tuberculosis. Put plainly: Antibacterial activity against isoniazid-resistant Mycobacterium tuberculosis RS-032 clinical isolate harboring katG S315T mutant assessed as reduction in bacterial growth after 7 days by resazurin assay. On the technique in general: Alamar Blue is a resazurin reagent that responds to reducing activity.
The subject of assay [2] is Mycobacterium tuberculosis. Briefly: Antibacterial activity against multidrug-resistant Mycobacterium tuberculosis PE-003 clinical isolate harboring inhA C(-15)T mutant assessed as reduction in bacterial growth after 7 days by resazurin assay.
For assay [3], the system named is Mycobacterium tuberculosis. Briefly: Antibacterial activity against isoniazid-resistant Mycobacterium tuberculosis RS-036 clinical isolate harboring inhA C(-15)T mutant assessed as reduction in bacterial growth after 7 days by resazurin assay.
The test system of assay [4] is Mycobacterium tuberculosis. Briefly: Selectivity ratio of MIC for isoniazid-resistant Mycobacterium tuberculosis RS-032 clinical isolate harboring katG S315T mutant to MIC for Mycobacterium tuberculosis H37Rv.

Turning to `COc1ccc2nc(C)cc(OCC(=O)Nc3ccccc3OC)c2c1`, the MIC (as a rule, the lowest concentration found to suppress growth) in assay [1] is 0.88 µM (≈ 0.31 µg/mL); in assay [2], 0.06 µM (≈ 0.0211 µg/mL); in assay [3] it was 0.44 µM (≈ 0.155 µg/mL). The Selectivity ratio in assay [4] was found to be 2.
The matching figures for `COc1ccc2nc(C)cc(OCC(=O)NCc3ccccc3)c2c1`: 3.71 µM (≈ 1.25 µg/mL), 0.46 µM (≈ 0.155 µg/mL), 1.85 µM (≈ 0.622 µg/mL) and 2.
On to `COc1ccc2nc(C)cc(OCC(=O)Nc3ccc4c(c3)OCO4)c2c1`, for which the minimum inhibitory concentration (MIC) is 3.41 µM (≈ 1.25 µg/mL) in assay [1], 0.21 µM (≈ 0.0769 µg/mL) in assay [2] and 0.85 µM (≈ 0.311 µg/mL) in assay [3]. Further, in assay [4], the Selectivity ratio was found to be 2.
The matching figures for `COc1ccc2nc(C)cc(OCC(=O)Nc3ccc4ccccc4c3)c2c1`: 0.84 µM (≈ 0.313 µg/mL), 0.05 µM (≈ 0.0186 µg/mL), 0.1 µM (≈ 0.0372 µg/mL) and 2.
On to `COc1ccc2nc(C)cc(OCC(=O)Nc3ccc(C(F)(F)F)cc3)c2c1`, for which the MIC in assay [1] came out at 1.6 µM (≈ 0.625 µg/mL); in assay [2] it was 0.1 µM (≈ 0.039 µg/mL); in assay [3], 0.8 µM (≈ 0.312 µg/mL).
Turning to `COc1ccc2nc(C)cc(OCC(=O)Nc3ccccc3)c2c1`, the MIC in assay [1] came out at 1.93 µM (≈ 0.622 µg/mL); in assay [2], 0.24 µM (≈ 0.0774 µg/mL); in assay [3], 0.48 µM (≈ 0.155 µg/mL). Further, the Selectivity ratio in assay [4] is recorded as 2.
For `COc1ccc2nc(C)cc(OCC(=O)Nc3ccccc3C)c2c1` the same measures were 0.93 µM (≈ 0.313 µg/mL), 0.11 µM (≈ 0.037 µg/mL), 0.46 µM (≈ 0.155 µg/mL) and 2.
The matching figures for `COc1ccc2nc(C)cc(OCC(=O)Nc3ccc(Cl)cc3)c2c1`: 0.87 µM (≈ 0.31 µg/mL), 0.06 µM (≈ 0.0214 µg/mL), 0.44 µM (≈ 0.157 µg/mL) and 2.
As for `COc1ccc2nc(C)cc(OCC(=O)Nc3ccc(Br)cc3)c2c1`, the MIC in assay [1] worked out at 0.78 µM (≈ 0.313 µg/mL); in assay [2], 0.05 µM (≈ 0.0201 µg/mL); in assay [3], 0.39 µM (≈ 0.156 µg/mL). In addition, in assay [4], the Selectivity ratio is reported as 2.
The matching figures for `COc1cccc(NC(=O)COc2cc(C)nc3ccc(OC)cc23)c1`: 7.08 µM (≈ 2.49 µg/mL), 0.44 µM (≈ 0.155 µg/mL), 1.77 µM (≈ 0.624 µg/mL) and 2.
As for `COc1ccc2nc(C)cc(OCC(=O)Nc3ccccc3Cl)c2c1`, the MIC worked out at 1.75 µM (≈ 0.624 µg/mL) in assay [1], 0.11 µM (≈ 0.0392 µg/mL) in assay [2] and 0.44 µM (≈ 0.157 µg/mL) in assay [3].
On to `COc1ccc(NC(=O)COc2cc(C)nc3ccc(OC)cc23)cc1`, for which the values for the MIC in assay [1], in assay [2] and in assay [3] were 0.88 µM (≈ 0.31 µg/mL), 0.06 µM (≈ 0.0211 µg/mL) and 0.44 µM (≈ 0.155 µg/mL), respectively. For the same molecule, the Selectivity ratio in assay [4] amounted to 2.
For the molecule `COc1ccc2nc(C)cc(OCC(=O)Nc3cccc(Cl)c3)c2c1`, the MIC in assay [1] is 3.5 µM (≈ 1.25 µg/mL); in assay [2], 0.22 µM (≈ 0.0785 µg/mL); in assay [3], 0.87 µM (≈ 0.31 µg/mL).
With `COc1ccc(NC(=O)COc2cc(C)nc3ccc(OC)cc23)c(OC)c1`, the figures for the minimal inhibitory concentration (MIC) in assay [1], in assay [2] and in assay [3] were 0.81 µM (≈ 0.31 µg/mL), 0.2 µM (≈ 0.0765 µg/mL) and 0.41 µM (≈ 0.157 µg/mL), respectively. The Selectivity ratio in assay [4] was determined as 2.
For the molecule `NNC(=O)c1ccncc1` [ISONIAZID], the MIC in assay [1], in assay [2] and in assay [3] was over 70 µM in each case.
